In patent US8623338B2, “Methionine-derived peptidomimetics and their use in the protection of mitochondria of cutaneous cells” (Exsymol S.A.M., priority 2010, dated 2014):
Values joined by “and” are separate entries in the source; they are usually repeats but may differ in a detail not shown here. Equal entries are not always repeated. Where two headings read alike, the source gives them in different places. Marks after values point to notes of the source that are not given here. Blank lines part the entries; values can stand above or below the compound they belong to.

What was measured:
[1] = literature value (Mitragotri 2003); cited from earlier work
[2] = reference antioxidants, literature footnotes; cited from earlier work
[3] = tested on: cell line of fibroblasts called V79; assay: Restoration of cellular ATP levels in V79 fibroblasts exposed to H2O2 stress (luminometry, ATPlite 1step); format: cell-based, hamster; settings: V79 cells
Description: Test 1: Evidence of the Ability of the Methionine-derived Peptidomimetics to Restore the Cellular ATP Levels on Cells Exposed to a Stress (H2O2):
The experimental study has been carried out on a cell line of fibroblasts called V79, and seeded in a 96 well plate at the rate of 5000 cells per well in 100 μl of culture medium (containing 10% foetal calf serum). This one is then replaced in each of the well by 100 μl of medium containing some peptidomimetics according to the invention, at the concentration of 7.5 mM or 10 mM. After 2 hours of incubation, the medium is removed from all wells. Then the cells are submitted to a stress with the addition of a medium containing 50 μl of hydrogen peroxide H2O2 (4 ppm). After 8 additional hours of incubation, the ATP average concentration is measured by luminometry in presence of luciferin (“ATPlite lstep” kit) and through a standard curve prepared from highly purified ATP.
The results, expressed as the average values obtained from three independent experiments, are presented in the hereafter table 1, in comparison with a control.

[4] = Hydroxyl radical scavenging speed constant (deoxyribose / thiobarbituric acid method); settings: pH 7.4, 37° C., one hour
Text: Test 5: Evidence of the Antioxidant Effect of the N-Acety-(DL)-Methionyl-4-(Methylthio)Propylamine and N-Propionyl-(DL)-Methionyl-4-(Methylthio)Propylamine on the Hydroxyl Radical
The method, described by Rehman A. and coll. (British J. Pharmacol. (1997), vol. 122, pp. 1702-1706), is used for the determination of the scavenging speed constant of the hydroxyl radical [Ks (OH°)], the peptidomimetic according to the invention being compared to two reference antioxidants, mannitol and ascorbic acid (vitamin C).
Experimentally, the tested substance is dissolved in a buffered medium of pH 7.4 to which is added a OH° generating system (ascorbate/iron/EDTA) in presence of deoxyribose. After one hour of incubation at 37° C., the reaction is stopped with the help of trichloroacetic acid. After colorimetric visualization with thiobarbituric acid, the absorbance is measured at 532 nm for different concentrations, then the relative Ks (OH°) is calculated for each of the substances.

[5] = Percutaneous absorption on human skin explants (Frantz-type cells, OECD guideline 428); format: in vitro ADME; settings: 1% solution, 24 hours contact
Text: Test 2: Percutaneous Absorption Study of the Methionine-derived Peptidomimetics on Human Skin Explants: The values of permeability coefficient (Kp) were obtained from a previously frozen abdominal […] human skin, in accordance with protocol described in the OECD guidelines n° 428 on cutaneous absorption studies. Experimentally, the skin explants were placed on Frantz-type cells in passive diffusion, piloted by the “MicroettePlus Hanson Research” system. The tested products are applied in a non-occlusive way. After that skin was laid on the cells, 500 μl of peptidomimetic according to the invention (1% solution) were placed in each of the cells and for a total contact time of 24 hours. At the end of these ones, the remaining product is sampled and the skin surface rinsed for extraction and for measure of the absorbed quantity, then for the determination of the permeability coefficient expressed under logarithmic type (Log Kp).

[6] = tested on: mitochondrial mass of V79 cells; assay: Mitochondrial mass / biogenesis in V79 cells under H2O2 stress (MitoTracker Green FM, flux cytometry); format: cell-based, hamster; settings: Mitogreen
Text: (§1) Test 3: Evidence of the Protective Effect of the N-Acety-(DL)-Methionyl-4-(Methylthio)Propylamine Compound on the Mitochondrial Oxidative Stress and on the Mitochondrial Biogenesis
(§2) Principles: measures of the mitochondrial intracellular oxidative stress and detection of the mitochondrial biogenesis were achieved by flux cytometry with the following fluorophore markers: • the “MitoSOX™ Red” red fluorescent probe below-designed “MitoSOX” (detection to λ=580 nm; supplier: Invitrogen) allows to specifically detect the O2°^− superoxide anion present in mitochondria (due to its strong affinity for mitochondria), • the “MitoTracker® Green FM” green fluorescent probe below-designed “Mitogreen” (detection to λ=516 nm; supplier: Invitrogen) allows to quantify the mitochondrial mass (or related number of mitochondria per cell).
(§3) Experimentally, tests were achieved on a fibroblastic line of hamster “V79”, maintained by lining out in a “EMEM” complete culture medium (with 10% foetal calf serum) in humid atmosphere at 37° C. and 5% CO2. The V79 cells are seeded then incubated 24 hours in […] at the rate of 2.5·10^5 cells per well in 3 ml of the same culture medium, then exposed 1h30 to a stress with the addition of a medium containing hydrogen peroxide H2O2 (15 ppm).
(§4) After trypsination, the cells are incubated at 37° C. for 15 minutes in 1 ml of “EMEM” complete culture medium and containing the above-mentioned markers “MitoSOX” (at the final concentration of 5 μM) and “Mitogreen” (at the final concentration of 200 nM), for respective detection: • of the mitochondrial oxidative stress (expressed in % of positive cells) • of the mitochondrial mass per cell (expressed in % of MFI (“Mean Fluorescence Intensity”) in relation to the control).
(§5) The results, expressed as the average values obtained from four independent experiments, are presented in the hereafter tables 3a and 3b, in comparison with those obtained for the N-acetyl-cysteine chosen as a reference protective agent at the concentration of 5 mM.

[7] = tested on: O2°− superoxide anion present in mitochondria of V79 cells; assay: Mitochondrial oxidative stress in V79 cells under H2O2 stress (MitoSOX Red, flux cytometry); format: cell-based, hamster; settings: for % of positive cells to MitoSOX: V79 cells
Text: as §1, §2, §3, §4, §5

[8] = Whitening test of pyrogallol red by peroxynitrite ions; settings: inhibition of pyrogallol red (50 μM) oxidation by ONOO− (25 μM), pH 7.0, 5 minutes
Text: Test 6: Evidence of the Antioxidant Effect of the […])Propylamine Compound on Peroxynitrite Ions The method so-called “whitening test of the pyrogallol red (PR)”, described by Nath V. B. and coll.

Compound: Cn1c(=O)c2c(ncn2C)n(C)c1=O [caffeine]
Kp [1]: 1 · 10^−4** cm · h^−1

Compound: OC[C@@H](O)[C@@H](O)[C@H](O)[C@H](O)CO [mannitol]
Ks(OH°) [2]: 1.6 10^9 · M^−1 · s^−1 and 1.9 10^9 · M^−1 · s^−1

Kp [5]: 9.7e-05 cm/h
Compound: CCC(=O)NC(CCSC)C(=O)NCCCSC (stereo not drawn) [N-propionyl-(DL)-methionyl-4-(methylthio)propylamine]
ATP ([3]; compound 10 mM + H2O2 (4 ppm), 8 h): 449 nM
ATP ([3]; compound 10 mM, no H2O2): 528 nM
Ks(OH°) [4]: 5.7 10^9 · M^−1 · s^−1

Compound: CC(=O)N[C@@H](CS)C(=O)O [N-acetyl-cysteine, reference compound]
MFI (% control) ([6]; 5 ppm + H2O2 (15 ppm, 1h30)): 74.4 % control
% of positive cells to MitoSOX ([7]; 5 ppm + H2O2 (15 ppm, 1h30)): 15.2%

Kp [5]: 0.000109 cm/h
IC50 [8]: 1010 µM
Compound: CSCCCNC(=O)C(CCSC)NC(C)=O (stereo not drawn) [N-acetyl-(DL)-methionyl-4-(methylthio)propylamine]
ATP ([3]; compound 7.5 mM + H2O2 (4 ppm), 8 h): 483 nM
ATP ([3]; compound 7.5 mM, no H2O2): 591 nM
MFI (% control) ([6]; 7.5 mM + H2O2 (15 ppm, 1h30)): 123.5 % control
MFI (% control) ([6]; 10 mM + H2O2 (15 ppm, 1h30)): 127.5 % control
Ks(OH°) [4]: 6.1 10^9 · M^−1 · s^−1
effect on intramitochondrial stress (MitoSOX and Mitogreen) ([7]; V79 cells + H2O2, in words, both tables 3a and 3b): ability to reduce the effect of intramitochondrial stress
% of positive cells to MitoSOX ([7]; 7.5 mM + H2O2 (15 ppm, 1h30)): 40.3%

IC50 [8]: 83 µM
Compound: Cc1c(C)c2c(c(C)c1O)CCC(C)(C(=O)O)O2 (stereo not shown) [Trolox, carboxylic 2-(6-hydroxy-2,5,7,8-tetramethylchromane) acid, reference compound]

Compound: O=C1O[C@H]([C@@H](O)CO)C(O)=C1O [ascorbic acid]
Ks(OH°) [2]: 10.1** 10^9 · M^−1 · s^−1
